Eleven compounds from PubChem BioAssay (NCI) can be followed below.

The structures appear in SMILES notation. “And” between values parts separate entries of the source, which are not always exact repeats. Equal entries are not always repeated.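 Five compound concentrations were applied to cells in 96-well plates for 48 hours; endpoints were derived by simple linear interpolation of the resulting dose-response curve. GI50 is the concentration that inhibits growth by half. TGI denotes the concentration required for complete inhibition of growth.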

Test systems include ACHN renal; DU-145 prostate; HT29 colon; LOX IMVI melanoma; NCI/ADR-RES ovarian; RPMI-8226 leukemia; SK-MEL-2 melanoma; SR leukemia; SW-620 colon; UO-31 renal.
Assay in all cases: DTP human tumour cell line panel, 48 h

A word on the TGI: it is the concentration giving total growth inhibition. Lower therefore signals more potent growth arrest. Take `CCCCCCCCCCCCCCCCCC(=O)Nc1ccn(C2CCC(COP(=O)(O)O)O2)c(=O)n1` (centres undefined): the TGI in the assay on ACHN renal, in the assay on DU-145 prostate, in the assay with HT29 colon, in the assay on LOX IMVI melanoma, in the assay with NCI/ADR-RES ovarian and in the assay with RPMI-8226 leukemia was greater than 100 µM each time. For the same compound, the TGI in the assay on SK-MEL-2 melanoma, in the assay on SR leukemia, with SW-620 colon and in the assay on UO-31 renal was greater than 100 µM throughout.
In the case of `O=C1/C(=C/c2ccccc2)NC(=S)N1CN1CCCCC1`, the TGI with ACHN renal, with DU-145 prostate, in the assay with HT29 colon, in the assay with LOX IMVI melanoma, in the assay with NCI/ADR-RES ovarian and in the assay on RPMI-8226 leukemia was greater than 100 µM throughout. In addition, the concentration for total growth inhibition (TGI) in the assay with SK-MEL-2 melanoma, in the assay on SR leukemia, in the assay on SW-620 colon and in the assay on UO-31 renal was greater than 100 µM each time.
Turning to `Cc1cc(N2CCCC2)c([N+](=O)[O-])cc1[N+](=O)[O-]`, the TGI in the assay on ACHN renal, in the assay with DU-145 prostate, in the assay with HT29 colon, with LOX IMVI melanoma, with NCI/ADR-RES ovarian and with RPMI-8226 leukemia was greater than 100 µM in each case. Moreover, the TGI in the assay on SK-MEL-2 melanoma, in the assay with SR leukemia, with SW-620 colon and with UO-31 renal was greater than 100 µM each time.
As for `COC(=O)C1=CON2C3CC4CC(C3)CC(C4)C12C` (centres undefined), the TGI with ACHN renal, with DU-145 prostate, in the assay with HT29 colon, in the assay on LOX IMVI melanoma, in the assay with NCI/ADR-RES ovarian and with RPMI-8226 leukemia was greater than 100 µM throughout. In addition, the TGI in the assay with SK-MEL-2 melanoma, in the assay with SR leukemia, with SW-620 colon and with UO-31 renal was greater than 100 µM each time.
A word on the GI50: it is the concentration giving 50% growth inhibition. With `CCN(CC)CCOC(=O)Cc1cccc2c(=O)cc(-c3ccccc3)oc12`, the TGI is 62.5 µM in the assay with ACHN renal; 54.6 µM in the assay with DU-145 prostate; 35.1 µM and > 240 µM in the assay on LOX IMVI melanoma; 62.5 µM and > 283 µM in the assay on NCI/ADR-RES ovarian; 51 µM and > 224 µM with RPMI-8226 leukemia; 62.5 µM and > 212 µM in the assay with SK-MEL-2 melanoma. Also, the TGI with SR leukemia is 37.9 µM; in the assay with SW-620 colon, 62.5 µM and > 251 µM. In addition, the GI50 with HT29 colon was 530 µM; in the assay with LOX IMVI melanoma, 45.3 µM; with NCI/ADR-RES ovarian, 123 µM; in the assay on SK-MEL-2 melanoma it was 52.9 µM; in the assay on SW-620 colon, 123 µM; with UO-31 renal, 295 µM.
As for `COc1ccc([C@]23CCN4COC[C@@H]([C@H]42)C2(CC3)OCC(C)(C)CO2)cc1OC`, the TGI in the assay on ACHN renal, with DU-145 prostate, in the assay with HT29 colon, in the assay with LOX IMVI melanoma, in the assay with NCI/ADR-RES ovarian and in the assay on RPMI-8226 leukemia was greater than 100 µM in each case. Moreover, the TGI in the assay with SK-MEL-2 melanoma, in the assay with SR leukemia, in the assay with SW-620 colon and in the assay on UO-31 renal was greater than 100 µM throughout.
Turning to `c1csc(-c2ccsc2-c2ccsc2)c1`, the TGI with ACHN renal, in the assay with DU-145 prostate, with HT29 colon, in the assay on LOX IMVI melanoma, with NCI/ADR-RES ovarian and in the assay on RPMI-8226 leukemia was greater than 100 µM throughout. Besides, the TGI is 42.3 µM in the assay with SK-MEL-2 melanoma, greater than 100 µM in the assay with SR leukemia, greater than 100 µM with SW-620 colon and greater than 100 µM with UO-31 renal.
Consider `COC1(c2cccs2)c2ccccc2C(OC)(c2cccs2)c2ccccc21` (centres undefined), for which the TGI with ACHN renal, in the assay with DU-145 prostate, in the assay with HT29 colon, in the assay on LOX IMVI melanoma, in the assay with NCI/ADR-RES ovarian and with RPMI-8226 leukemia was greater than 100 µM each time. The TGI in the assay with SK-MEL-2 melanoma, in the assay on SR leukemia, with SW-620 colon and in the assay with UO-31 renal was greater than 100 µM throughout.
On to `CCCC(=O)NC(Nc1ccc(F)cc1)(C(F)(F)F)C(F)(F)F`, for which the TGI with ACHN renal, in the assay with DU-145 prostate, in the assay with HT29 colon, with LOX IMVI melanoma, in the assay with NCI/ADR-RES ovarian and in the assay on RPMI-8226 leukemia was greater than 100 µM each time. The TGI in the assay on SK-MEL-2 melanoma was 67 µM; in the assay on SR leukemia, greater than 100 µM; with SW-620 colon, greater than 100 µM; in the assay with UO-31 renal, greater than 100 µM.
In the case of `Cc1ccc(S(=O)(=O)n2ccc(-c3ccc4ccn(S(=O)(=O)c5ccc(C)cc5)c4c3)c2)cc1`, the TGI in the assay on ACHN renal, in the assay on DU-145 prostate, with HT29 colon, in the assay on LOX IMVI melanoma, in the assay on NCI/ADR-RES ovarian and in the assay with RPMI-8226 leukemia was greater than 100 µM each time. Besides, the TGI in the assay with SK-MEL-2 melanoma, with SR leukemia, in the assay with SW-620 colon and in the assay on UO-31 renal was greater than 100 µM throughout.
For the compound `CC(=O)Oc1cc(OC(C)=O)c2c(C)cc(=O)oc2c1`, the concentration for total growth inhibition (TGI) with ACHN renal, in the assay with DU-145 prostate, with HT29 colon, in the assay with LOX IMVI melanoma, in the assay with NCI/ADR-RES ovarian and in the assay on RPMI-8226 leukemia was greater than 100 µM each time. The total growth inhibition concentration (TGI) in the assay on SK-MEL-2 melanoma, in the assay with SR leukemia, in the assay on SW-620 colon and in the assay with UO-31 renal was greater than 100 µM throughout.
